Columns and labels:
[1] = system: bleomycin-induced pulmonary fibrosis, C57BL/6 mice; assay: Bleomycin-induced pulmonary fibrosis in mice; assay type: in vivo, mouse; conditions: for fibrosis-associated inflammation (BAL cell counts, CD11b, CD11c, CD45, Ly6G, Ly6C): daily i.p. from day 10, 1 mg/kg (2-acetyl pyridine, methyl picolinate) or 0.1 mg/kg (AMPCA), day 21, FIGS. 8A-F; for bleomycin-induced decrease in weights of mice / bleomycin-induced collagen deposition in the lungs (Sirius red staining): daily i.p. from day 10, 1 mg/kg (2AP, MP) or 0.1 mg/kg (AMPCA); for bleomycin-induced decrease in weights of mice: 21 days, FIGS. 11A-D; for bleomycin-induced collagen deposition in the lungs (Sirius red staining): day 21, FIGS. 9-10
Method: To determine if selected compounds affect pulmonary fibrosis in mice, 8-10 week old 26-30 g male C57BL/6 mice (Jackson, Bar Harbor, ME) were given an oropharyngeal aspiration of 3 units/kg bleomycin (2246-10, 50, BioVision Incorporated, Milpitas, CA) in 50 μl of 0.9% saline to induce symptoms of pulmonary fibrosis or oropharyngeal saline as a control following Current protocols in mouse biology 2, 167-175, (2012). Starting 10 days after bleomycin had been administered, some of the bleomycin-treated mice were given daily intraperitoneal injections of 100 μl of PBS or 1 mg/kg 2-acetyl pyridine (sc-254121, Santa Cruz Biotechnology, Inc. Dallas, TX) or 1 mg/kg methyl picolinate (sc-228575, Santa Cruz Biotechnology, Inc.) or 0.1 mg/kg of 2-piperidinecarboxylic acid, 4-amino-1-methyl (A00285-13785-026, Sundia, Shanghai, China) in 100 μl PBS. At day 21, mice were sacrificed by CO2 inhalation, and bronchoalveolar lavage (BAL) fluid and cytospins of BAL cells were obtained as previously described in Current protocols in mouse biology 2, 167-175 (2012); Proceedings of the National Academy of Sciences of the United States of America 112, 11929-11934 (2015); Proceedings of the National Academy of Sciences of the United States of America 111, 18291-18296 (2014); Proceedings of the National Academy of Sciences of the United States of America 112, 8385-8390 (2015); and Public Library of Science ONE 9, e93730 (2014) (all hereby incorporated by reference). The total cells from cytospins were quantified as described previously in Current protocols in mouse biology 2, 167-175, (2012); and Public Library of Science ONE 9, e93730 (2014). The lungs were removed and inflated with Surgipath frozen section compound (3801480, Leica, Buffalo Grove, IL) and preserved at −80° C. 6-10 μm cryosections of lungs were placed on glass slides (48311-703, VWR). The experiment was performed in accordance with the recommendations in the Guide for the Care and Use of Laboratory Animals of the National Institutes of Health. The Texas A&M University Animal Use and Care Committee approved the protocol.
Cryosections were stained for collagen with 0.1% Sirius red (09400, Polysciences, Warrington, PA), in saturated picric acid (26853-07, Electron Microscopy Sciences, Hatfield, PA) for 15 minutes at room temperature. The sections were washed in 0.5% acetic acid in water (v/v) for 10 minutes with two washes at room temperature. After dehydrating the sections in ethanol, the sections were mounted in Permount mounting medium (17986-01, Electron Microscopy Sciences). The sections were imaged on a Nikon Microphot-FX (Nikon, Tokyo, Japan), and staining was quantified with ImageJ.
Immunohistochemistry on BAL cytospins was performed as described previously in Public Library of Science ONE 9, e93730 (2014); Proceedings of the National Academy of Sciences of the United States of America 111, 18291-18296 (2014); and Proceedings of the National Academy of Sciences of the United States of America 112, 8385-8390 (2015) using anti-CD11b (101202, clone M1/70 BioLegend, San Diego, CA) to detect blood and inflammatory macrophages, anti-CD11c (M100-3, clone 223H7, MBL International, Woburn, MA) to detect alveolar macrophages and dendritic cells, anti-CD45 (103102, clone 30-F11, BioLegend) for total leukocytes, anti-Ly-6G (127602, clone 1A8, BioLegend) to detect neutrophils, and anti-Ly-6C (128001, clone HK1.4, BioLegend) to detect a variety of inflammatory immune system cells, and with isotype-matched irrelevant antibodies (BioLegend) as controls.

[2] = system: NEU3-induced IL-6 production by human PBMC; assay: NEU3-induced extracellular IL-6 accumulation by human PBMC (IL-6 concentration assay); assay type: cell-based; conditions: NEU3, serum-free medium, 48 hours
Method: Human peripheral blood was collected from healthy volunteers who gave written consent and with specific approval from the Texas A&M University human subjects review board. Peripheral blood mononuclear cells (PBMC) were isolated from the blood using Ficoll-Paque density gradient centrifugation (95021-205, GE Healthcare, Cincinnati, OH) following the manufacture's protocol. PBMC were cultured at […] in 96-well flat bottom tissue culture plates (type 62406-081; […] Louis, MO)) in a final volume of 200 μl per well. […] The sialidases were diluted in 100 μl of the same medium the cells were in, and added to 100 μl of cells at 1×10^5 cells/ml to make the total volume in a well 200 μl with 1×10^4 cells/well. The cells were then incubated at 37° C. in a humidified incubator with 5% CO2. The culture supernatants were collected after two or five days and assayed using an IL-6 ELISA kit (430501, Biolegend, San Diego, CA) following the manufacturer's protocol, reading absorbance with a SynergyMX plate reader (BioTek, Winooski, VT). Statistics were analyzed using Prism software (Graphpad, La Jolla, CA). At least three different donors were used for each assay. […] IL-6 in the culture supernatant was then assayed as described above. At least three different donors were used for each assay.

In the case of `COC(=O)c1ccccn1` [Compound 6, methyl picolinate], the “fibrosis-associated inflammation (BAL cell counts, CD11b, CD11c, CD45, Ly6G, Ly6C)” value (from here on “fibrosis-associated inflammation”) [1] is reported as “can reduce fibrosis-associated inflammation”, the “bleomycin-induced decrease in weights of mice” value (“bleomycin-induced decrease” for short) [1] is reported as “attenuated” and the “bleomycin-induced collagen deposition in the lungs (Sirius red staining)” value (“bleomycin-induced collagen deposition” for short) [1] is reported as “reduced”. It also gave an IC50 [2] of over 100 µM.
In the case of `CN1CCC(N)CC1C(=O)O` (stereo not drawn) [Compound 26, 2-piperidinecarboxylic acid, 4-amino-1-methyl], the “fibrosis-associated inflammation” value [1] is reported as “can reduce fibrosis-associated inflammation”, the “bleomycin-induced decrease” value [1] is reported as “attenuated” and the “bleomycin-induced collagen deposition” value [1] is reported as “reduced”. For the same compound, the IC50 [2] was 1e-05 µM.
For `CC(=O)c1ccccn1` [Compound 5, 2-acetylpyridine], the “fibrosis-associated inflammation” value [1] was “can reduce fibrosis-associated inflammation”, the “bleomycin-induced decrease” value [1] was “attenuated” and the “bleomycin-induced collagen deposition” value [1] was “reduced”. The IC50 [2] was 32 µM.
